The results in this text go back to patent US20150299120A1, “Spirohydantoin compounds and their use as selective androgen receptor modulators” (NOVARTIS AG, priority 2012, published 2015).

The target of one data set is T1, androgen receptor (AR) (Homo sapiens, UniProt P10275).
T1 construct: transfecting C2C12 cells with a plasmid containing full-length AR; expressed in transfected cells; host or cells: mouse myoblastic C2C12 cells (ATCC CRL-1772), transiently transfected with AR-FL in pcDNA 3.1(+)
T1 sequence (P10275 1-920): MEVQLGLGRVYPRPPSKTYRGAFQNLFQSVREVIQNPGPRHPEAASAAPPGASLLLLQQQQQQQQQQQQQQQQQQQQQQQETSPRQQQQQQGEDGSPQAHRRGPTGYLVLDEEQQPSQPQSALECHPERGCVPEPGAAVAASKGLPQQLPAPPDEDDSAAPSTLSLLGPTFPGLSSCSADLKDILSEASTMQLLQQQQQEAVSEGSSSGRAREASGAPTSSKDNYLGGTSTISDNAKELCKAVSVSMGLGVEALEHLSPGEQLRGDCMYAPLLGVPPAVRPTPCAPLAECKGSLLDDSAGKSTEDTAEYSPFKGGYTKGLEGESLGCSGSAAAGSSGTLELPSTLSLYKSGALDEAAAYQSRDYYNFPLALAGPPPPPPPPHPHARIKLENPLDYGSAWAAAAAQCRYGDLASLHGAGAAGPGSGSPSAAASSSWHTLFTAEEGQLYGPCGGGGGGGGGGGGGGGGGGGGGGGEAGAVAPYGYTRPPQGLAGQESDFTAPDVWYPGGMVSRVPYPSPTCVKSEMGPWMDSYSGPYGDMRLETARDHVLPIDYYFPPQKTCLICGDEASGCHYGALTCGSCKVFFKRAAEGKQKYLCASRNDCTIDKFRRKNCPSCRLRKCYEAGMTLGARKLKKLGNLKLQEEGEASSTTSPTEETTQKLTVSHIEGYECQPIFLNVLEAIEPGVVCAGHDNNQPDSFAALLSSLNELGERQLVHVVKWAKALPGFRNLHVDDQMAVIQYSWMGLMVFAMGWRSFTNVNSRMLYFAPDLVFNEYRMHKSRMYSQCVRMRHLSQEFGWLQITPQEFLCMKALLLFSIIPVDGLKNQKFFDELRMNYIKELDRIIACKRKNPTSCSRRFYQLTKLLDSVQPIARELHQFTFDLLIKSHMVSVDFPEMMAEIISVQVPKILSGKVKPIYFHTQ
The data set can be described thus: Test 1: androgen receptor transcriptional activation (2XIDR17-luciferase) assay in transfected C2C12 cells. It is filed as cell-based. The note with it: for Emax: C2C12, C2C12 cells, percentage activity relative to 1 μM DHT, read-out: Biological activity (C2C12 cell) Emax % (converted); for EC50: mouse myoblastic C2C12 cells transfected with full-length AR and 2XIDR17-luciferase, read-out: Biological activity (C2C12 cell) EC50; for % Biological activity (C2C12 cell) 100 nM / % Biological activity (C2C12 cell) 5 μM: C2C12 cells, relative to 1 μM DHT; for % Biological activity (C2C12 cell) 100 nM: compound at 100 nM; for % Biological activity (C2C12 cell) 5 μM: compound at 5 μM. On the procedure: A suitable assay to determine the ability of a ligand to transcriptionally activate androgen receptor (AR) is carried out using mouse myoblastic C2C12 cells. The assay involves transfecting C2C12 cells with a plasmid containing full-length AR along with an AR response element linked to luciferase (2XIDR17). The luminescence read-out at the end of the assay is measured using Victor 3 and is a direct measure of the transcriptional activity. The assay has been validated using the reference compound, BMS-564929, for which EC50 values have been reported in a similar set-up.
C2C12 cells were obtained from ATCC (Cat #CRL-1772) and maintained in DMEM modified to contain 4 mM L-glutamine, 4.5 g/L glucose, 1 mM sodium pyruvate and 1.5 g/L sodium bicarbonate and 10% FBS.
AR-FL in pcDNA 3.1(+) and 2XIDR17 in pGL4.26 plasmids prepared using Genelute plasmid miniprep kit from Sigma Cat #PLED35 Steadyglow Luciferase assay system Promega Cat #E2550
• C2C12 cells were seeded in a 96-well plate in DMEM (Dulbecco's Modified Eagle Medium) without phenol red and containing 10% CS-FBS (Charcoal-stripped Fetal Bovine Serum) at 8000 cells/well. • The next day, cells were transfected with an equimolar ratio of (Androgen Receptor-Full length) AR-FL and 2XIDR17-Luciferase at a total plasmid concentration of 200 ng/well using Lipofectamine 2000 following manufacturer's protocol. • For the transfection, 83 ng of AR-FL and 117 ng of 2XIDR17-Luciferase were in 12.5 μl of OptiMEM—Mix A. 0.4 μl of Lipofectamine 2000 was added to 12.5 μl of OptiMEM and incubated for 5 min at room temperature—Mix B. The two mixes A and B were mixed and incubated at room temperature for an additional fifteen minutes. An additional 50 μl of OptiMEM was added, gently mixed and this mixture was added to the cells in the 96-well plate. The above quantities are requirements per well of a 96-well plate. Master mixes were made for the entire plate, with proportional quantity of reagents being used. • 5 h after transfection, compounds were added to the wells in DMEM without phenol red and containing 10% CS-FBS, maintaining a final DMSO concentration of 0.5%. A typical dose response curve starts at 10 μM and includes a 7-point, log dilution, done in triplicates. • After overnight incubation with the compounds, 100 ul of working solution of Steadyglow reagent was added to the wells. • The plates were placed in a shaker for 15 min at the end of which the lysate containing luciferase was transferred to a white flat-bottom plate and read under a luminescence setting in Victor. • Background subtracted counts (Luminescence from DMSO control wells is considered the background) are used to calculate percentage activity, expressed relative to activity with 1 μM (Dihydrotestosterone) DHT (at least two sets of triplicates for 1 μM DHT are included per plate).
The EC50 curves for the compounds for 8 compound concentrations were fitted by the respective function using non-linear least-squares regression in Graphpad Prism 4.0 (Graphpad Software, San Diego, Calif., USA).

Molecules are shown by their SMILES.

Turning to `Cc1c(N2C(=O)N(Cc3ccc(C#N)cc3)C3(CCCC3)C2=O)ccc(C#N)c1Cl` [Example 8.0, 2-chloro-4-(1-(4-cyanobenzyl)-2,4-dioxo-1,3-diazaspiro[4.4]nonan-3-yl)-3-methylbenzonitrile], the melting point is 195 °C. Moreover, on androgen receptor (AR), the Emax was 106% and the concentration for a half-maximal effect (EC50) was 0.00048 µM.
The compound `Cc1cc(CN2C(=O)N(c3ccc(C#N)c(Cl)c3C)C(=O)C23CCCC3)no1` [Example 8.1, 2-chloro-3-methyl-4-(1-((5-methylisoxazol-3-yl)methyl)-2,4-dioxo-1,3-diazaspiro[4.4]nonan-3-yl)benzonitrile] displayed a melting point of 134 °C. In addition, at androgen receptor (AR), the Emax is 109% and the concentration for a half-maximal effect (EC50) amounted to 0.006 µM.
For `Cc1noc(C)c1CN1C(=O)N(c2ccc(C#N)c(Cl)c2C)C(=O)C12CCCC2` [Example 8.3, 2-chloro-4-(1-((3,5-dimethylisoxazol-4-yl)methyl)-2,4-dioxo-1,3-diazaspiro[4.4]nonan-3-yl)-3-methylbenzonitrile], the melting point amounted to 109 °C. On androgen receptor (AR), the “% Biological activity (C2C12 cell) 100 nM” value is 3% and the “% Biological activity (C2C12 cell) 5 μM” value is on record as 19%.
For the compound `Cc1c(N2C(=O)N(Cc3ccccn3)C3(CCCC3)C2=O)ccc(C#N)c1Cl` [Example 8.4, 2-chloro-4-(2,4-dioxo-1-(pyridin-2-ylmethyl)-1,3-diazaspiro[4.4]nonan-3-yl)-3-methylbenzonitrile], the melting point was found to be 179 °C. At androgen receptor (AR), the Emax is 96% and the EC50 stood at 0.048 µM.
For `Cc1c(N2C(=O)N(Cc3ccncc3)C3(CCCC3)C2=O)ccc(C#N)c1Cl` [Example 8.5, 2-chloro-4-(2,4-dioxo-1-(pyridin-4-ylmethyl)-1,3-diazaspiro[4.4]nonan-3-yl)-3-methylbenzonitrile], the melting point was determined as 76 °C. Besides, the concentration giving a half-maximal response (EC50) at androgen receptor (AR) was determined as 0.0307 µM.
In turn, `Cc1ccc(CN2C(=O)N(c3ccc(C#N)c(Cl)c3C)C(=O)C23CCCC3)cn1` [Example 8.6, 2-chloro-3-methyl-4-(1-((6-methylpyridin-3-yl)methyl)-2,4-dioxo-1,3-diazaspiro[4.4]nonan-3-yl)benzonitrile] had a melting point of 177 °C. Also, at androgen receptor (AR), the half-maximal effective concentration (EC50) was 0.011 µM.
`Cc1c(N2C(=O)N(CCOCCF)C3(CCCC3)C2=O)ccc(C#N)c1Cl` [Example 9.2, 2-chloro-4-(1-(2-(2-fluoroethoxy)ethyl)-2,4-dioxo-1,3-diazaspiro[4.4]nonan-3-yl)-3-methylbenzonitrile] yielded a melting point of 112 °C. Also, at androgen receptor (AR), the maximal effect (Emax) was 83% and the concentration giving a half-maximal response (EC50) is 0.0178 ± 0.0066 µM.
In turn, `Cc1c(N2C(=O)N(CC(C)C)C3(CCCC3)C2=O)ccc(C#N)c1Cl` [Example 9.5, 2-chloro-4-(1-isobutyl-2,4-dioxo-1,3-diazaspiro[4.4]nonan-3-yl)-3-methylbenzonitrile] registered a melting point of 115 °C. On androgen receptor (AR), the “% Biological activity (C2C12 cell) 100 nM” value was 11% and the “% Biological activity (C2C12 cell) 5 μM” value stood at 74%.
Take `Cc1c(N2C(=O)N(CCO)C3(CCCC3)C2=O)ccc(C#N)c1Cl` [Example 9.7, 2-chloro-4-(1-(2-hydroxyethyl)-2,4-dioxo-1,3-diazaspiro[4.4]nonan-3-yl)-3-methylbenzonitrile]: the melting point came out at 98 °C. In addition, at androgen receptor (AR), the Emax is 76% and the EC50 turned out to be 0.199 µM.
In turn, `Cc1c(N2C(=O)N(CC3CCOC3)C3(CCCC3)C2=O)ccc(C#N)c1Cl` (stereo not shown) [Example 11.0, 2-chloro-4-(2,4-dioxo-1-((tetrahydrofuran-3-yl)methyl)-1,3-diazaspiro[4.4]nonan-3-yl)-3-methylbenzonitrile] gave a melting point of 70 °C. At androgen receptor (AR), the “% Biological activity (C2C12 cell) 100 nM” value was determined as 25% and the “% Biological activity (C2C12 cell) 5 μM” value worked out at 48%.
Take `Cc1c(N2C(=O)N(C)C3(CCC3)C2=O)ccc(C#N)c1Cl` [Example 12.0, 2-chloro-3-methyl-4-(5-methyl-6,8-dioxo-5,7-diazaspiro[3.4]octan-7-yl)benzonitrile]: the melting point was determined as 133 °C. Also, on androgen receptor (AR), the “% Biological activity (C2C12 cell) 100 nM” value came to 67% and the “% Biological activity (C2C12 cell) 5 μM” value is listed as 70%.

One may read the Emax as the maximal effect, on the per cent scale that the assay sets. The term EC50 denotes the concentration at which the effect is half-maximal. In general, melting point refers to the temperature of the solid-liquid transition.
